Laboratory results taken from ChEMBL document CHEMBL1201862, “PubChem BioAssay data set” (2004).
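Interpolation was linear, between the two tested concentrations surrounding the appropriate level; five concentrations were tested over 48 hours in 96-well plates. Here, GI50 denotes the concentration required for 50% inhibition of growth.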 Active and inactive are the calls of the source. No stated cut-off is given here; in the data, active = GI50 up to about 1.1 µM and inactive = higher.

Legend:
Assay in all cases: inhibition of tumour cell growth, NCI panel, 48 h
SR = tested on: SR
A498 = tested on: A498
M14 = tested on: M14
PC-3 = tested on: PC-3
Malme-3M = tested on: Malme-3M
ACHN = tested on: ACHN
CAKI-1 = tested on: CAKI-1
HOP-92 = tested on: HOP-92
MCF7 = tested on: MCF7
786-0 = tested on: 786-0
NCI-H226 = tested on: NCI-H226
NCI/ADR-RES = tested on: NCI/ADR-RES
DLD-1 = tested on: DLD-1
DMS-273 = tested on: DMS-273
XF498 = tested on: XF498
M19-MEL = tested on: M19-MEL
SNB-78 = tested on: SNB-78
KM-20L2 = tested on: KM-20L2
DMS-114 = tested on: DMS-114
HOP-18 = tested on: HOP-18

| Structure (SMILES) | GI50 (SR) | GI50 (A498) | GI50 (M14) | GI50 (PC-3) | GI50 (Malme-3M) | GI50 (ACHN) | GI50 (CAKI-1) | GI50 (HOP-92) | GI50 (MCF7) | GI50 (786-0) | GI50 (NCI-H226) | GI50 (NCI/ADR-RES) | GI50 (DLD-1) | GI50 (DMS-273) | GI50 (XF498) | GI50 (M19-MEL) | GI50 (SNB-78) | GI50 (KM-20L2) | GI50 (DMS-114) | GI50 (HOP-18) |
| --- | --- | --- | --- | --- | --- | --- | --- | --- | --- | --- | --- | --- | --- | --- | --- | --- | --- | --- | --- | --- |
| COc1ccc(-c2cc(C(O)C3CCCCN3)c3ccccc3n2)cc1 (stereo unspecified) | 0.394 µM (active) | 12.3 µM (inactive) | 2.14 µM (inactive) | 5.08 µM (inactive) | 13.6 µM (inactive) | 11.9 µM (inactive) | 5.86 µM (inactive) | 2.86 µM (inactive) | 3.87 µM (inactive) | 8.34 µM (inactive) | 7.06 µM (inactive) | 16.7 µM (inactive) | – | – | – | – | – | – | – | – |
| Brc1ccc(C2CC(c3cccc4ccccc34)=Nc3ccccc3S2)cc1 (stereo unspecified) | 27.5 µM (inactive) | > 100 µM (inactive) | > 100 µM (inactive) | – | – | > 100 µM (inactive) | > 100 µM (inactive) | > 100 µM (inactive) | – | – | > 100 µM (inactive) | – | 51.8 µM (inactive) | 80 µM (inactive) | > 100 µM (inactive) | 40.2 µM (inactive) | 82 µM (inactive) | 96.8 µM (inactive) | – | – |
| CCCCCCCC/C=C\CCCCCCCCNc1ccn(C2OC(COP(=O)(O)OC3CC(n4cc(F)c(=O)[nH]c4=O)OC3CO)C(O)C2O)c(=O)n1 (stereo unspecified) | 0.0159 µM (active) | – | 0.315 µM (active) | 28.7 µM (inactive) | 13.2 µM (inactive) | 0.0177 µM (active) | 2.09 µM (inactive) | 7.93 µM (inactive) | < 0.0394 µM (active) | 0.195 µM (active) | > 28.4 µM (inactive) | 3.36 µM (inactive) | – | – | – | – | – | – | – | – |
| CCCC(=O)OC[n+]1ccc2c(C)c3[nH]c4ccc(OC)cc4c3c(C)c2c1 | 0.0486 µM (active) | 1.02 µM (active) | 0.708 µM (active) | – | 1.45 µM (inactive) | 0.215 µM (active) | 0.908 µM (active) | 1.16 µM (inactive) | – | 0.0953 µM (active) | 0.444 µM (active) | – | 0.196 µM (active) | 0.0586 µM (active) | – | 0.555 µM (active) | 0.594 µM (active) | 0.226 µM (active) | 0.47 µM (active) | – |
| C/C(=C\c1ccc(Cl)cc1)C(C)(C)C(=O)O | 3.75 µM (inactive) | > 100 µM (inactive) | > 100 µM (inactive) | > 100 µM (inactive) | > 100 µM (inactive) | > 100 µM (inactive) | > 100 µM (inactive) | > 100 µM (inactive) | > 100 µM (inactive) | > 100 µM (inactive) | > 100 µM (inactive) | > 100 µM (inactive) | – | – | – | – | – | – | – | – |
| CC1=C2C(=C[C@H]3[C@]4(C)CCCC(C)(C)[C@H]4CC[C@]34O[C@H]24)OC1=O | – | > 100 µM (inactive) | > 100 µM (inactive) | > 100 µM (inactive) | > 100 µM (inactive) | > 100 µM (inactive) | – | > 100 µM (inactive) | > 100 µM (inactive) | > 100 µM (inactive) | > 100 µM (inactive) | > 100 µM (inactive) | – | – | – | – | – | – | – | – |
| COc1c(Cl)cc(S(=O)O)cc1Cl | – | > 100 µM (inactive) | > 100 µM (inactive) | – | > 100 µM (inactive) | > 100 µM (inactive) | – | – | – | – | – | – | > 100 µM (inactive) | – | > 100 µM (inactive) | > 100 µM (inactive) | > 100 µM (inactive) | – | > 100 µM (inactive) | – |
| COc1ccc([I+]c2ccc(OC)cc2)cc1 | > 50.5 µM (inactive) | > 100 µM (inactive) | 54.8 µM (inactive) | > 60 µM (inactive) | 20.2 µM (inactive) | > 100 µM (inactive) | > 100 µM (inactive) | > 100 µM (inactive) | 46.7 µM (inactive) | 50.7 µM (inactive) | 32.7 µM (inactive) | > 100 µM (inactive) | – | – | – | – | – | – | – | – |
| COc1ccc(-c2nnc3c4ccccc4sn23)cc1 | 16.6 µM (inactive) | – | 26.4 µM (inactive) | – | – | 28 µM (inactive) | – | 34.9 µM (inactive) | – | – | – | – | – | 10.8 µM (inactive) | – | 22.5 µM (inactive) | 41.9 µM (inactive) | 29.2 µM (inactive) | 17.1 µM (inactive) | 23.2 µM (inactive) |
| O=C1C2C(C(=O)N1OS(=O)(=O)c1ccccc1)N(Cc1ccccc1)C(=O)N2Cc1ccccc1 (stereo unspecified) | > 100 µM (inactive) | > 100 µM (inactive) | > 100 µM (inactive) | – | > 100 µM (inactive) | > 100 µM (inactive) | > 100 µM (inactive) | > 100 µM (inactive) | – | > 100 µM (inactive) | > 100 µM (inactive) | – | > 100 µM (inactive) | – | > 100 µM (inactive) | > 100 µM (inactive) | > 100 µM (inactive) | > 100 µM (inactive) | > 100 µM (inactive) | – |
| CC(=O)N(CCN1C(=O)c2ccccc2C1=O)CCN1C(=O)c2ccccc2C1=O | > 100 µM (inactive) | > 100 µM (inactive) | > 100 µM (inactive) | – | – | > 100 µM (inactive) | > 100 µM (inactive) | > 100 µM (inactive) | – | > 100 µM (inactive) | – | – | > 100 µM (inactive) | > 100 µM (inactive) | > 100 µM (inactive) | > 100 µM (inactive) | > 100 µM (inactive) | > 100 µM (inactive) | > 100 µM (inactive) | – |
| CN(CCO)CCC1COc2ccccc2O1 (stereo unspecified) | > 10 µM (inactive) | > 10 µM (inactive) | > 10 µM (inactive) | > 10 µM (inactive) | > 10 µM (inactive) | > 10 µM (inactive) | > 10 µM (inactive) | – | > 10 µM (inactive) | – | > 10 µM (inactive) | > 10 µM (inactive) | – | – | – | – | – | – | – | – |
| CC(NNC(=O)c1cc[n+]([BH2-]C#N)cc1)c1ccc(F)cc1 (stereo unspecified) | > 100 µM (inactive) | > 100 µM (inactive) | > 100 µM (inactive) | > 100 µM (inactive) | > 100 µM (inactive) | > 100 µM (inactive) | > 100 µM (inactive) | > 100 µM (inactive) | > 100 µM (inactive) | > 100 µM (inactive) | > 100 µM (inactive) | > 100 µM (inactive) | – | – | – | – | – | – | – | – |
| Clc1ncc(C(Cl)(Cl)Cl)nc1-c1ccccc1 | 3.85 µM (inactive) | – | 2.23 µM (inactive) | 1.78 µM (inactive) | 5.14 µM (inactive) | 1.68 µM (inactive) | 2.2 µM (inactive) | 1.99 µM (inactive) | 1.68 µM (inactive) | 1.95 µM (inactive) | 18.4 µM (inactive) | 4.07 µM (inactive) | – | – | – | – | – | – | – | – |
| N#CSCC1COc2ccccc2O1 (stereo unspecified) | 2.58 µM (inactive) | > 10 µM (inactive) | 8.39 µM (inactive) | > 10 µM (inactive) | > 10 µM (inactive) | > 10 µM (inactive) | > 10 µM (inactive) | – | > 10 µM (inactive) | – | 6.11 µM (inactive) | > 10 µM (inactive) | – | – | – | – | – | – | – | – |
| N#C/C(=C\c1ccc(Br)cc1)c1nc(-c2cc3ccccc3oc2=O)cs1 | 34 µM (inactive) | – | 14.9 µM (inactive) | 21 µM (inactive) | 10.5 µM (inactive) | 10.8 µM (inactive) | 48.4 µM (inactive) | 11 µM (inactive) | 18.4 µM (inactive) | 17 µM (inactive) | 11.9 µM (inactive) | 11.9 µM (inactive) | – | – | – | – | – | – | – | – |
| CN1C[C@H]2[C@@H](C1=O)[C@H](c1ccccc1)ON2C | > 100 µM (inactive) | – | > 100 µM (inactive) | > 100 µM (inactive) | – | > 100 µM (inactive) | > 100 µM (inactive) | 59.2 µM (inactive) | > 100 µM (inactive) | – | > 100 µM (inactive) | > 100 µM (inactive) | – | – | – | – | – | – | – | – |
